Four molecules from US20130230511A1, “BIOMARKERS FOR RESPONSE TO TYROSINE KINASE PATHWAY INHIBITORS IN CANCER” (BOARD OF REGENTS, THE UNIVERSITY OF TEXAS SYSTEM, priority 2012, published 2013) can be followed below.

In one assay the test system is NSCLC cell line H23. The experiment in a line: MTS assay of in vitro resistance to cisplatin and carboplatin, with KDR siRNA knockdown. Format: cell-based. Conditions: for decrease in IC50 caused by knockdown of KDR: H23 cells, siKDR knockdown versus untransfected, P<0.05; for IC50: MTS assay, 72 h drug exposure. How it is done:
Cisplatin and carboplatin sensitivity was determined by MTS (3-(4,5-dimethylthiazol-2-yl)-5-(3-carboxymethoxyphenyl)-2-(4-sulfophenyl)-2H-tetrazolium, inner salt) assay for each cell line and the concentration required for 50% growth inhibition (IC50) was determined.
NSCLC cells were transfected with siRNA targeting KDR and control siRNA (OriGene Technology, Md., USA) at a final concentration of 10 nM using Lipofectamine RNAiMAX (Invitrogen, CA, USA) according to the manufacturer's instructions. Medium was replaced after 24 h. To verify the knockdown efficiency, mRNA and protein of transfected cells were collected for real-time RT-PCR and Western blot analyses.
The assessment of in vitro resistance to cisplatin and carboplatin was determined by the MTS assay. NSCLC cell lines were seeded in octuplicate at a density of 2,000 per well in 96-well plates. The following day, cells were treated with cisplatin and carboplatin at various concentrations ranging from 0 to 120 μmol/L for cisplatin and 0 to 200 μmol/L for carboplatin. After 72 h of drug exposure, 20 μL of MTS solution was added per well. Cells were incubated for 1-4 hours at 37° C. and read at a wavelength of 490 nm.
To investigate the role of KDR CNG and VEGFR-2 overexpression in resistance to both cisplatin and carboplatin, siRNA was utilized to knockdown KDR expression in H23 and H461 NSCLC cell lines, which contain 6-9 KDR gene copies. […] To evaluate the effect of KDR overexpression on sensitivity to cisplatin and carboplatin, the expression of KDR was inhibited by transfecting H23 and H461 cells with control siRNA or siRNA targeting KDR and then treating the cells with increasing concentrations of the chemotherapy drugs. Cell viability was evaluated by MTS assay.

A further assay concerns HIF-1α. As to conditions: H23 cells (KDR CNG+), ELISA.
The subject of another assay is H23 cells. Conditions: which harbor VEGFR (KDR) CNGs.
The subject of assay [1] is HIF-1α-regulated proteins (EZH2, Met, phosphorylated Met). The experiment in a line: Changes in HIF-1α-regulated proteins in VEGFR amplified cell lines. Format: cell-based. Conditions: H23 and Calu1 cells (VEGFR CNGs).
Protocol: Two VEGFR amplified cell lines, H23 and Calu1, were treated with the VEGFR pathway inhibitor bevacizumab and evaluated for changes in proteins regulated by HIF-1α.
In addition, two VEGFR amplified cell lines, H23 and Calu1, were treated with the VEGFR pathway inhibitor bevacizumab and changes in proteins regulated by HIF-1α were evaluated.
Setting [2] is: untransfected (non-transfected) H23 cells.

The IC50 is the concentration that gives 50% inhibition. `N.N.O=C([O-])C1(C(=O)[O-])CCC1.[Pt+2]` [carboplatin]: the “decrease in IC50 caused by knockdown of KDR” value with NSCLC cell line H23 worked out at 3.5 fold. Moreover, the results for the IC50 with NSCLC cell line H23 (siKDR knockdown H23 cells) and with NSCLC cell line H23 (setting [2]) were 27.9 µM and 97 µM, respectively.

Take `N.N.[Cl][Pt][Cl]` [cisplatin]: the “decrease in IC50 caused by knockdown of KDR” value in the assay with NSCLC cell line H23 is on record as 1.9 fold. Also, the IC50 was determined as 53 µM with NSCLC cell line H23 (siKDR knockdown H23 cells) and 97.9 µM with NSCLC cell line H23 (setting [2]).

As for `Cc1ccc(NC(=O)c2ccc(CN3CCN(C)CC3)cc2)cc1Nc1nccc(-c2cccnc2)n1` [imatinib], the HIF-1α levels entry in the assay on HIF-1α is listed as “did not affect”. In addition, in the assay with H23 cells, the cell migration entry is listed as “does not inhibit cellular migration”.

bevacizumab: in assay [1], the EZH2 protein entry is reported as “decreased”, the Met protein entry is “decreased” and the “phosphorylated Met” value is “decreased”.
